Measurements: PubChem BioAssay AID330 (DTP/NCI, 2004)
Where “and” joins values, the source holds several entries; their conditions need not be identical. Equal values may be shown once. Toxic doses and inconclusive results are not listed.

Test system: P388 leukemia ip, CD2F1 mice, survival T/C
Assay: NCI In Vivo Anticancer Drug Screen. Data for tumor model P388 Leukemia (intraperitoneal) in CD2F1 (CDF1) mice
Details: endpoint: median survival time, higher = longer survival
In short: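 Mice carrying the transplanted tumor received test compound or vehicle. Survival was recorded in each group, and the value is the treated-group measurement divided by that of the vehicle-treated control group.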

[1] = dose: 15.0 mg/kg/injection, schedule: Q01DX005 (ip), vehicle: saline with Tween-80
[2] = dose: 50.0 mg/kg/injection, schedule: Q01DX005 (ip), vehicle: Klucel (hydroxypropylcellulose) (HPC)
[3] = dose: 100.0 mg/kg/injection, schedule: Q01DX005 (ip), vehicle: Klucel (hydroxypropylcellulose) (HPC)
[4] = dose: 200.0 mg/kg/injection, schedule: Q01DX005 (ip), vehicle: Klucel (hydroxypropylcellulose) (HPC)
[5] = dose: 12.5 mg/kg/injection, schedule: Q01DX009 (ip), vehicle: saline
[6] = dose: 25.0 mg/kg/injection, schedule: Q01DX009 (ip), vehicle: saline
[7] = dose: 50.0 mg/kg/injection, schedule: Q01DX009 (ip), vehicle: saline
[8] = dose: 50.0 mg/kg/injection, schedule: Q01DX009 (ip), vehicle: Klucel (hydroxypropylcellulose) (HPC)
[9] = dose: 100.0 mg/kg/injection, schedule: Q01DX009 (ip), vehicle: Klucel (hydroxypropylcellulose) (HPC)
[10] = dose: 200.0 mg/kg/injection, schedule: Q01DX009 (ip), vehicle: Klucel (hydroxypropylcellulose) (HPC)
[11] = dose: 25.0 mg/kg/injection, schedule: Q01DX009 (ip), vehicle: Klucel (hydroxypropylcellulose) (HPC)
[12] = dose: 50.0 mg/kg/injection, schedule: Q01DX005 (ip), vehicle: saline with Tween-80
[13] = dose: 100.0 mg/kg/injection, schedule: Q01DX005 (ip), vehicle: saline with Tween-80
[14] = dose: 200.0 mg/kg/injection, schedule: Q01DX005 (ip), vehicle: saline with Tween-80
[15] = dose: 50.0 mg/kg/injection, schedule: Q01DX009 (ip), vehicle: saline with Tween-80
[16] = dose: 100.0 mg/kg/injection, schedule: Q01DX009 (ip), vehicle: saline with Tween-80

O=C1c2ccccc2-c2c1nc1ccccc1[n+]2[O-]
T/C (dose: 6.25 mg/kg/injection, schedule: Q01DX005 (ip), vehicle: saline): 102 % of control
T/C (dose: 12.5 mg/kg/injection, schedule: Q01DX005 (ip), vehicle: saline): 103 % of control
T/C (dose: 25.0 mg/kg/injection, schedule: Q01DX005 (ip), vehicle: saline): 96 % of control

O=C(c1ccccc1)c1ccc2n[se]nc2c1
T/C (dose: 3.75 mg/kg/injection, schedule: Q01DX005 (ip), vehicle: saline with Tween-80): 100 % of control
T/C (dose: 7.5 mg/kg/injection, schedule: Q01DX005 (ip), vehicle: saline with Tween-80): 87 % of control
T/C [1]: 97 % of control

COc1cc2[nH]c3cc(OC)c(OC)cc3c2cc1C
T/C [1]: 100 % of control
T/C (dose: 30.0 mg/kg/injection, schedule: Q01DX005 (ip), vehicle: saline with Tween-80): 96 % of control
T/C (dose: 60.0 mg/kg/injection, schedule: Q01DX005 (ip), vehicle: saline with Tween-80): 102 % of control and 86 % of control

Clc1cc2[nH]cnc2c(Cl)n1
T/C (dose: 6.25 mg/kg/injection, schedule: Q04DX002 (ip), vehicle: saline): 102 % of control
T/C (dose: 12.5 mg/kg/injection, schedule: Q04DX002 (ip), vehicle: saline): 102 % of control
T/C (dose: 25.0 mg/kg/injection, schedule: Q04DX002 (ip), vehicle: saline): 103 % of control

C=CCOCC(O)Cn1cnc2c(N)ncnc21 (stereo not given)
T/C [2]: 97 % of control
T/C [3]: 106 % of control
T/C [4]: 100 % of control

O=C(O)CSc1ccc2c3c(cccc13)C(=O)c1ccccc1-2
T/C (dose: 6.25 mg/kg/injection, schedule: Q01DX009 (ip), vehicle: saline): 100 % of control
T/C [5]: 99 % of control and 111 % of control
T/C [6]: 111 % of control
T/C [7]: 108 % of control
T/C (dose: 100.0 mg/kg/injection, schedule: Q01DX009 (ip), vehicle: saline): 104 % of control

CCCCCCCCCCCCCCCCS(=O)(=O)N/N=c1/sc2ccc(S(=O)(=O)O)cc2n1C
T/C [8]: 115 % of control
T/C [9]: 102 % of control
T/C [10]: 94 % of control

CCCCC(CC)C(=O)OC(C)C(=O)N(CCCC)CCCC (stereo not given)
T/C (dose: 25.0 mg/kg/injection, schedule: Q01DX005 (ip), vehicle: Klucel (hydroxypropylcellulose) (HPC)): 105 % of control
T/C [2]: 103 % of control
T/C [3]: 105 % of control
T/C [4]: 95 % of control

C/C=C(\C)C(=O)OC1C2C(C)C(=O)OC2C(O)C(C)C2C=CC(=O)C21C (stereo not given)
T/C (dose: 2.5 mg/kg/injection, schedule: Q01DX009 (ip), vehicle: Klucel (hydroxypropylcellulose) (HPC)): 100 % of control
T/C (dose: 5.0 mg/kg/injection, schedule: Q01DX009 (ip), vehicle: Klucel (hydroxypropylcellulose) (HPC)): 106 % of control
T/C (dose: 10.0 mg/kg/injection, schedule: Q01DX009 (ip), vehicle: Klucel (hydroxypropylcellulose) (HPC)): 99 % of control
T/C (dose: 20.0 mg/kg/injection, schedule: Q01DX009 (ip), vehicle: Klucel (hydroxypropylcellulose) (HPC)): 108 % of control

CCN(CC)CCCC(C)Nc1cc(C)nc2cc(N(C)C)ccc12 (stereo not given)
T/C (dose: 6.25 mg/kg/injection, schedule: Q01DX009 (ip), vehicle: Klucel (hydroxypropylcellulose) (HPC)): 99 % of control
T/C (dose: 12.5 mg/kg/injection, schedule: Q01DX009 (ip), vehicle: Klucel (hydroxypropylcellulose) (HPC)): 101 % of control
T/C [11]: 109 % of control

N=C(N)c1ccc2cc(/C=C/c3cc4ccc(C(=N)N)cc4o3)oc2c1
T/C (dose: 100.0 mg/kg/injection, schedule: Q04DX003 (ip), vehicle: suspension in saline): 112 % of control
T/C (dose: 200.0 mg/kg/injection, schedule: Q04DX003 (ip), vehicle: suspension in saline): 120 % of control

CC(=O)OC(C)C[N+](C)(C)C (stereo not given)
T/C (dose: 100.0 mg/kg/injection, schedule: Q04DX002 (ip), vehicle: saline): 102 % of control
T/C (dose: 200.0 mg/kg/injection, schedule: Q04DX002 (ip), vehicle: saline): 102 % of control
T/C (dose: 400.0 mg/kg/injection, schedule: Q04DX002 (ip), vehicle: saline): 94 % of control

CNC(C#N)C(O)c1ccccc1 (stereo not given)
T/C [5]: 92 % of control
T/C [6]: 92 % of control
T/C [7]: 93 % of control and 97 % of control

COc1cc(-c2ccc(N=Nc3ccc(N)nc3N)c(OC)c2)ccc1N=Nc1ccc(N)nc1N
T/C [12]: 101 % of control
T/C [13]: 104 % of control
T/C [14]: 90 % of control

O=c1cc(CC2(O)CCCCC2)c2ccccc2[nH]1
T/C (dose: 60.0 mg/kg/injection, schedule: Q01DX005 (ip), vehicle: Klucel (hydroxypropylcellulose) (HPC)): 95 % of control
T/C (dose: 120.0 mg/kg/injection, schedule: Q01DX005 (ip), vehicle: Klucel (hydroxypropylcellulose) (HPC)): 102 % of control
T/C (dose: 240.0 mg/kg/injection, schedule: Q01DX005 (ip), vehicle: Klucel (hydroxypropylcellulose) (HPC)): 95 % of control

Cc1ccc(S(=O)(=O)N=N/C=C2/C=CC=CN2O)cc1
T/C [11]: 118 % of control and 121 % of control
T/C [8]: 119 % of control
T/C [10]: 124 % of control

COc1cccc2c1C(=O)c1c(O)c3c(c(O)c1C2=O)C[C@@](O)(C(=O)COC(=O)CCCCC(=O)O)C[C@@H]3OC1CC(NC(=O)C(F)(F)F)C(O)C(C)O1 (stereo not given in full)
T/C (dose: 9.38 mg/kg/injection, schedule: Q04DX003 (ip), vehicle: other): 118 % of control
T/C (dose: 18.75 mg/kg/injection, schedule: Q04DX003 (ip), vehicle: other): 123 % of control
T/C (dose: 18.75 mg/kg/injection, schedule: Q04DX003 (ip), vehicle: saline with Tween-80): 119 % of control
T/C (dose: 37.5 mg/kg/injection, schedule: Q04DX003 (ip), vehicle: other): 124 % of control
T/C (dose: 75.0 mg/kg/injection, schedule: Q04DX003 (ip), vehicle: other): 156 % of control
T/C (dose: 150.0 mg/kg/injection, schedule: Q04DX003 (ip), vehicle: other): 194 % of control

CCCCN1NC1(C)c1ccccc1 (stereo not given)
T/C [12]: 108 % of control
T/C [13]: 104 % of control
T/C [14]: 112 % of control

Cc1nn(C(=O)c2ccncc2)c(C)c1N=Nc1ccccc1[N+](=O)[O-]
T/C [8]: 102 % of control
T/C [9]: 96 % of control
T/C [10]: 98 % of control

C/C(=C\Cl)CN(C)C
T/C (dose: 25.0 mg/kg/injection, schedule: Q01DX009 (ip), vehicle: saline with Tween-80): 111 % of control
T/C [15]: 111 % of control
T/C [16]: 116 % of control

Cc1nc2c([N+](=O)[O-])c(NCCCc3ccccc3)c([N+](=O)[O-])cc2[nH]1
T/C (dose: 50.0 mg/kg/injection, schedule: Q04DX003 (ip), vehicle: saline with Tween-80): 94 % of control
T/C (dose: 100.0 mg/kg/injection, schedule: Q04DX003 (ip), vehicle: saline with Tween-80): 100 % of control and 96 % of control

O=C(O)c1cc2c([N+](=O)[O-])cccc2[se]1
T/C [5]: 100 % of control
T/C [6]: 100 % of control
T/C [7]: 94 % of control and 97 % of control

CCCCCCCCCC(O)CCCCCCCCC
T/C (dose: 100.0 mg/kg/injection, schedule: Q04DX003 (ip), vehicle: other): 100 % of control
T/C (dose: 200.0 mg/kg/injection, schedule: Q04DX003 (ip), vehicle: other): 90 % of control
T/C (dose: 400.0 mg/kg/injection, schedule: Q04DX003 (ip), vehicle: other): 90 % of control

C=NN(C)C
T/C (dose: 2.39 mg/kg/injection, schedule: Q01DX009 (ip), vehicle: Klucel (hydroxypropylcellulose) (HPC)): 95 % of control
T/C (dose: 4.75 mg/kg/injection, schedule: Q01DX009 (ip), vehicle: Klucel (hydroxypropylcellulose) (HPC)): 102 % of control
T/C (dose: 9.5 mg/kg/injection, schedule: Q01DX009 (ip), vehicle: Klucel (hydroxypropylcellulose) (HPC)): 103 % of control
T/C (dose: 19.0 mg/kg/injection, schedule: Q01DX009 (ip), vehicle: Klucel (hydroxypropylcellulose) (HPC)): 105 % of control

N#Cc1cnn(-c2cc(Cl)ccc2Cl)c1N
T/C [15]: 99 % of control and 95 % of control and 98 % of control
T/C [16]: 101 % of control and 103 % of control and 92 % of control
T/C (dose: 200.0 mg/kg/injection, schedule: Q01DX009 (ip), vehicle: saline with Tween-80): 104 % of control and 105 % of control and 123 % of control

O=C(O)CCCCCCCCCCOc1ccc(Cl)cc1
T/C (dose: 50.0 mg/kg/injection, schedule: Q04DX003 (ip), vehicle: Klucel (hydroxypropylcellulose) (HPC)): 96 % of control
T/C (dose: 100.0 mg/kg/injection, schedule: Q04DX003 (ip), vehicle: Klucel (hydroxypropylcellulose) (HPC)): 99 % of control
T/C (dose: 200.0 mg/kg/injection, schedule: Q04DX003 (ip), vehicle: Klucel (hydroxypropylcellulose) (HPC)): 105 % of control
T/C (dose: 400.0 mg/kg/injection, schedule: Q04DX003 (ip), vehicle: Klucel (hydroxypropylcellulose) (HPC)): 92 % of control
